Results published in ChEMBL document CHEMBL3621074, “Exploration of the linkage elements of porcupine antagonists led to potent Wnt signaling pathway inhibitors” (Bioorg Med Chem, 2015).
One block for each molecule: values may come before it. Calls of active or inactive are those of the source. No cut-off for these calls is given here.

What was measured:
[1] = target: T1, Protein-serine O-palmitoleoyltransferase porcupine (Homo sapiens, UniProt Q9H237); assay: Inhibition of porcupine (unknown origin) expressed in mouse L Wnt3A cells co-cultured with TM3 cells harboring luciferase reporter gene assessed as reduction in Wnt ligand-driven LEF/TCF-dependent transcriptional activity; type: cell-based
T1 sequence (Q9H237 whole entry): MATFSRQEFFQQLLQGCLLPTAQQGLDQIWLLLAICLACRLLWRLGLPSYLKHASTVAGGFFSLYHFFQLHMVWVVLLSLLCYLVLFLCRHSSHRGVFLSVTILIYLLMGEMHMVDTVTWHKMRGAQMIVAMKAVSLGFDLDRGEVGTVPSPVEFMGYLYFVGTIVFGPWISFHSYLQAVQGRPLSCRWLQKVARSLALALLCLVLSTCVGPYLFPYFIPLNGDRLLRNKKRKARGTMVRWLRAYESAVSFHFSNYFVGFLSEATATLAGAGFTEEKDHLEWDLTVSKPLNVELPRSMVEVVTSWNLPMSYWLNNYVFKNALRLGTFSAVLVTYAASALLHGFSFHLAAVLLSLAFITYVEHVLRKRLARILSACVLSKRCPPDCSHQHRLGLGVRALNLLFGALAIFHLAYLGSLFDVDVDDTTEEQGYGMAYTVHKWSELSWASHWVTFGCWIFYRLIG

[2] = Chemical stability in simulated gastric fluid assessed as remaining compound level incubated for 4 hrs at 200 uM at 40 degC by HPLC method; type: physicochemical; details: read-out: Stability
[3] = Half life in mouse liver microsomes at 1 uM in presence of NADPH by LC-MS/MS method; type: ADME
[4] = Chemical stability in simulated gastric fluid assessed as remaining compound level incubated for 8 hrs at 200 uM at 40 degC by HPLC method; type: physicochemical; details: read-out: Stability
[5] = Intrinsic clearance in human liver microsomes at 1 uM incubated for 60 mins in presence of NADPH by LC-MS/MS method; type: ADME; details: read-out: CLH
CYP3A4 = CYP3A4 (Homo sapiens, UniProt P08684); assay: Inhibition of CYP3A4 in human liver microsomes at 10 uM pre-incubated for 10 mins before midazolam substrate and NADPH addition by LC-MS/MS method; type: ADME; details: probe midazolam
[6] = Half life in human liver microsomes at 1 uM in presence of NADPH by LC-MS/MS method; type: ADME
[7] = Intrinsic clearance in mouse liver microsomes at 1 uM incubated for 60 mins in presence of NADPH by LC-MS/MS method; type: ADME; details: read-out: CLH
[8] = Stability of the compound in rat plasma assessed as drug remaining at 1 uM incubated for 1 hr by LC-MS/MS method; type: ADME, cell-free; details: read-out: Stability
[9] = Chemical stability in simulated gastric fluid assessed as remaining compound level incubated for 0 hrs at 200 uM at 40 degC by HPLC method; type: physicochemical; details: read-out: Stability
[10] = Stability of the compound in rat plasma assessed as drug remaining at 1 uM incubated for 8 hr by LC-MS/MS method; type: ADME, cell-free; details: read-out: Stability
[11] = Stability of the compound in rat plasma assessed as drug remaining at 1 uM incubated for 30 mins by LC-MS/MS method; type: ADME, cell-free; details: read-out: Stability
CYP2D6 = CYP2D6 (Homo sapiens, UniProt P10635); assay: Inhibition of CYP2D6 in human liver microsomes at 10 uM pre-incubated for 10 mins before dextromethorphan substrate and NADPH addition by LC-MS/MS method; type: ADME; details: probe dextromethorphan
[12] = Effect on total intracellular Wnt3a levels in HEK293T cells transfected with pLinbin- Wnt3A plasmid at 0.1 uM incubated for 48 hrs by Western blotting method; type: ADME, cell-based; details: human, hek-293t
[13] = target: T2, Protein-serine O-palmitoleoyltransferase porcupine (Homo sapiens) (UniProt Q9H237); assay: Inhibition of porcupine (unknown origin) expressed in HEK293T cells transfected with pLinbin- Wnt3A plasmid assessed as inhibition of Wnt3A secretion at 0.1 uM incubated for 48 hrs by Western blotting method; type: cell-based; details: HEK-293T
T2 sequence (whole entry): T1 sequence (Q9H237 whole entry)

[14] = target: T2, Protein-serine O-palmitoleoyltransferase porcupine (Homo sapiens); assay: Potency index, ratio of IC50 for LGK974 to IC50 for test compound for inhibition of porcupine (unknown origin) expressed in mouse L Wnt3A cells co-cultured with HEK293 STF cells by STF reporter gene based paracrine cellular reporter gene assay; type: cell-based

Chain of CYP2D6 (P10635 whole entry): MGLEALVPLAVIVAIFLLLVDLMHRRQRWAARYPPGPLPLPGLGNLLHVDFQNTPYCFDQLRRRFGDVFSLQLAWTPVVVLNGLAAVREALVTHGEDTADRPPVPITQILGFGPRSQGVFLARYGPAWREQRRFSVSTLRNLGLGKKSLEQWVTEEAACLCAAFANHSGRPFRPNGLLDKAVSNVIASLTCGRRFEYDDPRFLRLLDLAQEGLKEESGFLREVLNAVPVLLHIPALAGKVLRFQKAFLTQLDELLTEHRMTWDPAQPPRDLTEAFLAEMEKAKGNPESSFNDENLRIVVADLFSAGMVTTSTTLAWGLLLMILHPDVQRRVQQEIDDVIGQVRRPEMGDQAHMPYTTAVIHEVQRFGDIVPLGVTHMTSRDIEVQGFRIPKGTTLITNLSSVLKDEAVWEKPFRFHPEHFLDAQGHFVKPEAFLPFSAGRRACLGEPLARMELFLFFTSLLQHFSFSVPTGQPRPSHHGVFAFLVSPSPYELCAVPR
Chain of CYP3A4 (P08684 whole entry): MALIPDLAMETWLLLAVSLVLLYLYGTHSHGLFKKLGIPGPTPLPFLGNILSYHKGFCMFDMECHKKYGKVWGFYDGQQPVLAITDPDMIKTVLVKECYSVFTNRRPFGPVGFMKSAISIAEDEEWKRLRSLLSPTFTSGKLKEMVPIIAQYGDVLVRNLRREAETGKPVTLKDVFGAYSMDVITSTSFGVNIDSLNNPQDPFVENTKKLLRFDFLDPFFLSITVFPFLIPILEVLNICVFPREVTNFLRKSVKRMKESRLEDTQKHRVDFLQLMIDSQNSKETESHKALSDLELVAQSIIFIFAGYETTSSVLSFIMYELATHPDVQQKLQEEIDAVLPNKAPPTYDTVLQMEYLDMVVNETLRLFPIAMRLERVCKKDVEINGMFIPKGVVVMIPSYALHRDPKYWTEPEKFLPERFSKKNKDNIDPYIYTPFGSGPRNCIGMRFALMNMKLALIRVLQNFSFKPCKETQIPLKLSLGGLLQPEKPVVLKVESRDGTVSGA

SMILES: Cn1ncc2cc(NCC(=O)Nc3ccc(-c4cnccn4)cn3)ccc21
IC50 [1]: > 1000 nM

SMILES: Nc1noc2ccc(OCC(=O)Nc3ccc(-c4cnccn4)cn3)cc12
IC50 [1]: > 1000 nM

SMILES: CC(=O)N1CCN(c2ccc(OCC(=O)Nc3ccc(-c4cnccn4)cn3)cc2)CC1
IC50 [1]: 483 nM

SMILES: Cc1cc(-c2cccc(NCC(=O)Nc3ccc(-c4cnccn4)cn3)c2)ccn1
IC50 [1]: 164 nM

SMILES: Cn1ncc2cc(OCC(=O)Nc3ccc(-c4cnccn4)cn3)ccc21
IC50 [1]: > 1000 nM

SMILES: O=C(COc1ccc2[nH]ncc2c1)Nc1ccc(-c2cnccn2)cn1
IC50 [1]: > 1000 nM

SMILES: N#Cc1ccc(OCC(=O)Nc2ccc(-c3cnccn3)cn2)cc1
IC50 [1]: 485 nM

SMILES: Cc1cc(-c2cccc(SCC(=O)Nc3ccc(-c4cnccn4)cn3)c2)ccn1
IC50 [1]: 40 nM

SMILES: O=C(COc1ccc2ccccc2c1)Nc1ccc(-c2cnccn2)cn1
IC50 [1]: > 1000 nM

SMILES: Cc1cc(-c2cccc(OCC(=O)Nc3ccc(-c4cnccn4)cn3)c2)ccn1
IC50 [1]: 188 nM

SMILES: COc1ccc2cc(OCC(=O)Nc3ccc(-c4cnccn4)cn3)ccc2c1
IC50 [1]: > 1000 nM

SMILES: O=C(COc1ccc2ccncc2c1)Nc1ccc(-c2cnccn2)cn1
IC50 [1]: 30 nM

SMILES: O=C(CNc1ccc2[nH]ncc2c1)Nc1ccc(-c2cnccn2)cn1
IC50 [1]: > 1000 nM

The next molecules have a lower IC50 [1] than those just listed; values first:

IC50 [1]: 24 nM
SMILES: CC(=O)N1CCc2ccc(OCC(=O)Nc3ccc(-c4cnccn4)cn3)cc2C1

IC50 [1]: 5 nM
SMILES: Cc1cc(-c2ccc(OC(=O)Nc3ccc(-c4ccccc4)cc3)cc2)ccn1

IC50 [1]: 2.7 nM
SMILES: N#Cc1ccc2cc(OCC(=O)Nc3ccc(-c4cnccn4)cn3)ccc2c1

IC50 [1]: 2.2 nM
SMILES: Cc1cc(-c2ccc(OC(=O)Nc3ccc(-c4cccnc4)cc3)cc2)ccn1

remaining at 4 h, 200 µM [2]: 88%
half-life at 1 µM [3]: 14 min
remaining at 8 h, 200 µM [4]: 85%
CLint scaled at 1 µM [5]: 45 mL/min/kg
inhibition at 10 µM (CYP3A4): 50%
half-life at 1 µM [6]: 39 min
CLint scaled at 1 µM [7]: 440 mL/min/kg
inhibition [13]: Active
remaining at 1 h, 1 µM [8]: 100%
IC50 [1]: 0.96 nM
remaining at 0 h, 200 µM [9]: 95%
remaining at 8 h, 1 µM [10]: 98%
remaining at 0.5 h, 1 µM [11]: 100%
inhibition at 10 µM (CYP2D6): 53%
SMILES: Cc1cc(-c2ccc(NCC(=O)Nc3ccc(-c4cnccn4)cn3)cc2)ccn1
Activity [12]: Non-toxic

IC50 [1]: 0.67 nM
SMILES: Cc1cc(-c2ccc(N(C)CC(=O)Nc3ccc(-c4cnccn4)cn3)cc2)ccn1

remaining at 4 h, 200 µM [2]: 89%
half-life at 1 µM [3]: 3.4 min
remaining at 8 h, 200 µM [4]: 83%
CLint scaled at 1 µM [5]: 263 mL/min/kg
inhibition at 10 µM (CYP3A4): 60%
half-life at 1 µM [6]: 6.8 min
CLint scaled at 1 µM [7]: 1790 mL/min/kg
remaining at 1 h, 1 µM [8]: 91%
IC50 [1]: 0.53 nM
remaining at 0 h, 200 µM [9]: 98%
remaining at 8 h, 1 µM [10]: 83%
remaining at 0.5 h, 1 µM [11]: 93%
inhibition at 10 µM (CYP2D6): 45%
SMILES: Cc1cc(-c2ccc(SCC(=O)Nc3ccc(-c4cnccn4)cn3)cc2)ccn1

remaining at 4 h, 200 µM [2]: 81%
half-life at 1 µM [3]: 4.3 min
remaining at 8 h, 200 µM [4]: 67%
CLint scaled at 1 µM [5]: 135 mL/min/kg
inhibition at 10 µM (CYP3A4): 47%
half-life at 1 µM [6]: 13 min
CLint scaled at 1 µM [7]: 1430 mL/min/kg
inhibition [13]: Active
remaining at 1 h, 1 µM [8]: 90%
IC50 [1]: 0.23 nM
remaining at 0 h, 200 µM [9]: 96%
remaining at 8 h, 1 µM [10]: 84%
remaining at 0.5 h, 1 µM [11]: 97%
inhibition at 10 µM (CYP2D6): 19%
SMILES: Cc1cc(-c2ccc(OCC(=O)Nc3ccc(-c4cnccn4)cn3)cc2)ccn1
Activity [12]: Non-toxic

remaining at 4 h, 200 µM [2]: 97%
half-life at 1 µM [3]: 4.8 min
remaining at 8 h, 200 µM [4]: 93%
CLint scaled at 1 µM [5]: 84 mL/min/kg
inhibition at 10 µM (CYP3A4): 45%
half-life at 1 µM [6]: 21 min
CLint scaled at 1 µM [7]: 1260 mL/min/kg
remaining at 1 h, 1 µM [8]: 94%
IC50 [1]: 0.19 nM
remaining at 0 h, 200 µM [9]: 100%
remaining at 8 h, 1 µM [10]: 90%
remaining at 0.5 h, 1 µM [11]: 98%
inhibition at 10 µM (CYP2D6): 47%
SMILES: Cc1cc(-c2ccc(CCC(=O)Nc3ccc(-c4cnccn4)cn3)cc2)ccn1

remaining at 4 h, 200 µM [2]: 85%
half-life at 1 µM [3]: 19 min
remaining at 8 h, 200 µM [4]: 71%
CLint scaled at 1 µM [5]: 43 mL/min/kg
inhibition at 10 µM (CYP3A4): 67%
half-life at 1 µM [6]: 41 min
CLint scaled at 1 µM [7]: 321 mL/min/kg
Ratio IC50 [14]: 5
inhibition [13]: Active
remaining at 1 h, 1 µM [8]: 100%
IC50 [1]: 0.11 nM
remaining at 0 h, 200 µM [9]: 97%
remaining at 8 h, 1 µM [10]: 100%
remaining at 0.5 h, 1 µM [11]: 100%
inhibition at 10 µM (CYP2D6): 53%
SMILES: Cc1cc(-c2ccc(OC(C)C(=O)Nc3ccc(-c4cnccn4)cn3)cc2)ccn1 (stereo not given)
Activity [12]: Non-toxic
